Source: a melting point compilation (Tetko et al.; mined from patent text by program, amines drawn as free bases though some values may be those of a salt)

`O=C1CCC(c2ccccc2)(c2ccccc2)[C@@H]2CN(C(=O)Cc3ccccc3Br)C[C@H]12` (racemic) gave a melting point of 217 °C.
With `Cc1cccc(C(C)C)c1NC(=O)NC1(c2cccs2)CCCCC1` the melting point was 230 to 232 °C.
For `Cc1nc(SCc2ccc(Cl)cc2)nc2c1CCCC2`, the melting point was 48 °C.
Work on `COc1cc(CC(C#N)=CNc2ccccc2)cc(OC)c1NC=O` yielded a melting point of 186 to 187 °C.
`Clc1cnnc(Cl)c1Cl` showed a melting point of 61 °C.
`Cc1cccc2c(-c3ccc(C(F)(F)F)cc3)onc12` showed a melting point of 118 to 119 °C.
With `OC(=S)CCc1cccc(Br)c1` the melting point was 90 to 91 °C.
In the case of `CC1=NC(=NOC(=O)NC(C)C)SC1(C)C`, the melting point is reported as 114 to 116 °C.
`CC(=O)c1cccc(N=P(c2ccccc2)(c2ccccc2)c2ccccc2)c1` showed a melting point of 135 to 136 °C.
Work on `COc1ccc(Cl)cc1-c1cc(Cl)cc2c1OC(CN)C2` (stereo not drawn) yielded a melting point of 174 to 176 °C.
Molecule `CC1=CC(=O)N(c2cc(NS(=O)(=O)c3cccc4c(N(C)C)cccc34)cc(N3C(=O)C=C(C)C3=O)c2)C1=O` has a melting point of 230 °C.
In the case of `CN1CC(CNCCC#N)CC2c3cccc4[nH]cc(c34)CC21` (stereo not drawn), the melting point is reported as 169 to 171 °C.
`O=CC1c2ccccc2C(C=O)c2c(Cl)cccc21` (stereo not drawn) showed a melting point of 144 to 146 °C.
`Cc1ccc(S(=O)(=O)NCC(CC(=O)Nc2ccccc2)c2ccc(Cl)cc2)cc1` (stereo not drawn) gave a melting point of 200 to 202 °C.
`COc1ccc([C@@H]2O[C@@H](CC(=O)O)C(=O)N(CC(C)(C)C)c3ccc(Cl)cc32)c(OC)c1` gave a melting point of 233 to 234 °C.
In the case of `CC(=O)NNc1ccc(NCc2ccccc2)cc1`, the melting point is reported as 118 to 120 °C.
`COc1ccc(-c2nc(SCCCCCc3nc4ccccc4[nH]3)[nH]c2-c2ccc(OC)cc2)cc1` gave a melting point of 85 to 86 °C.
In the case of `Fc1cccc(-c2ccc3nnn(Cc4ccc5ncccc5c4)c3n2)c1`, the melting point is reported as 145 to 147 °C.
Molecule `N[C@@H](CC(C(=O)O)=C1CCC1)C(=O)O` has a melting point of 212 to 214 °C.
For `Clc1ccccc1-c1nc2cc(Cn3ccnc3)ccc2[nH]1`, the melting point was 115 °C.
`CCOC(=O)c1ccc(N(C(C)=O)C(=O)c2ccc(C(=O)C(C)(C)C)cc2)cc1` showed a melting point of 91 to 94 °C.
Molecule `CN(C)C(=O)c1ccc(C(=O)Nc2cccc3cc(Br)cnc23)cc1` has a melting point of 196 to 198 °C.
For `CCOC(=O)c1c(-c2ccccc2Cl)c2cc(CC)sc2n(C)c1=O`, the melting point was 105 to 106 °C.
Work on `Cc1ccc(S(=O)(=O)N2[C@@H](CCc3ncnn3C)CC[C@H]2c2ccc(F)cc2)cc1` (racemic) yielded a melting point of 145 °C.
`O=c1[nH]c2c(I)c(Br)c(Br)c(I)c2[nH]c1=O` gave a melting point of over 350 °C.
`O=S(=O)(Nc1cccc(OCc2ncc3ccccc3n2)c1)C(F)(F)F` showed a melting point of 140 to 150 °C.
For `COc1nc(-c2ccccc2)c(-c2ccc(=O)n(C(C)C)n2)cc1C#N`, the melting point was 187 to 189 °C.
Molecule `Cc1noc(=O)c2ccc(NC(=O)C(=O)CC3(c4cccc(C(F)(F)F)c4F)CC3)cc12` has a melting point of 117 to 118 °C.
With `COC(=O)CC(NC(=O)c1cccc(OC)c1)c1ccc(OC)c(OC)c1` (stereo not drawn) the melting point was 124 to 125 °C.
Work on `Cc1ccc(C(=O)NCc2cc(C(C)(C)O)cc(C(F)(F)F)c2)cc1Nc1nccc(-c2cccnc2)n1` yielded a melting point of 253 to 258 °C.
Molecule `CCCn1nnn(-c2cc(C)c(Cl)cc2Cl)c1=O` has a melting point of 47 to 48 °C.
With `Cc1ccc2c(c1)oc1c(C(=O)NN3CCCC3)nn(-c3ccc(Cl)cc3Cl)c12` the melting point was 90 to 92 °C.
`CC1(c2ccccc2)Nc2ccc3c(c2N1)C(=O)c1ccccc1C3=O` (stereo not drawn) gave a melting point of 368 to 371 °C.
Molecule `COc1cc(C=C2CCCOC2CN)c([N+](=O)[O-])cc1OC` (stereo not drawn) has a melting point of 89 to 96 °C.
Work on `O=C(Nc1ccccc1-n1cccn1)c1cccc2c1C(=O)c1ccccc1-2` yielded a melting point of 164 to 166 °C.
For `CCCN(C(=O)CCl)[C@@H]1CCc2cc3c(cc2[C@H]1O)OCC3` (relative stereo), the melting point was 65 to 70 °C.
With `Cc1ccc(-n2ccc(=O)c(-c3ccnn3-c3ccccc3)n2)cc1` the melting point was 182 to 183 °C.
`Cc1nc(NC(=O)c2ccc(Cl)c(Cl)c2)sc1C(=O)NCc1ccccc1` showed a melting point of 212 to 214 °C.
`COc1ccc(S(=O)(=O)Nc2ccc(Cl)cc2Cc2c(F)cccc2F)cc1OC` gave a melting point of 144 °C.
Work on `CC1(C)c2ccccc2[C@H]2Nc3ccccc3[C@H]21` (relative stereo) yielded a melting point of 57 to 59 °C.
`CN(Cc1ccccc1)c1ncnc2c(N3CCOCC3)nc(N3CCC(N(C)C)CC3)nc12` gave a melting point of 98 °C.
In the case of `C[C@@H]1CN(C(=O)OC(C)(C)C)Cc2cc3cc(Br)c(F)cc3n21`, the melting point is reported as 116 to 118 °C.
Molecule `CCCCc1cn(C)cc(-c2cccc(C(F)(F)F)c2)c1=O` has a melting point of 82.5 to 84 °C.
Work on `O=C(OCc1ccccc1)c1cc(Cl)c(Cl)c(Cl)n1` yielded a melting point of 125 to 126 °C.
Molecule `Cc1ccsc1C(=O)Nc1ccc(C(=O)N2Cc3ccccc3Cc3ccccc32)cc1` has a melting point of 201 to 204 °C.
Work on `CC1(C)Oc2c(c(Cl)cc(Cl)c2-n2c(=O)cc(C(F)(F)F)[nH]c2=O)C1=O` yielded a melting point of 308 to 320 °C.
With `O=C(O)CCCCCCCCCCNC(=O)C(CS)Cc1ccccc1` (stereo not drawn) the melting point was 104 to 105 °C.
Molecule `CCOC(=O)C(SC)c1ccccc1NC` (stereo not drawn) has a melting point of 87.5 to 88.5 °C.
Molecule `COC(=O)c1cc(I)cn1C` has a melting point of 64 to 65 °C.
For `CN(CCN1CCNC1=O)Cc1cn(-c2ccc(F)cc2)c2ccc(Cl)cc12`, the melting point was 141 to 143 °C.
In the case of `Cn1c(=O)c(-c2ccc(Cl)cc2Cl)cc2c3cc(-c4cc(N)n[nH]4)ccc3n(C)c21`, the melting point is reported as 284 to 286 °C.
With `O=C(O)[C@H](CC1CCCCC1)n1cccc1` the melting point was 78 to 80 °C.
`CCOC(=O)c1cc(=O)cc(C)o1` showed a melting point of 35 to 38 °C.
For `COC=NC(C#N)=C(N)C#N`, the melting point was 138 to 139 °C.
`O=C(O)c1cnn2c(C(F)F)cc(-c3ccc(Cl)c(Cl)c3)nc12` showed a melting point of 263 °C.
Molecule `C[C@H](N)C(=O)NC(C)(Cc1ccc(F)cc1)c1ccc(F)cc1` (stereo partly drawn) has a melting point of 134 to 135 °C.
For `C=Cc1cc(C)cc(C)c1CC(=O)NC1(C(=O)OC)CCN(OC)CC1`, the melting point was 142 to 144 °C.
For `CCOC(=O)c1oc2ccc([N+](=O)[O-])cc2c1OC`, the melting point was 90 to 90.4 °C.
With `CCOC(=O)C(Cc1ccc(-c2ccco2)cc1)NC(=O)C1(NC(=O)OC(C)(C)C)CCCC1` (stereo not drawn) the melting point was 107 to 112 °C.
With `O=C(c1ccccc1)c1cnn2c1NCCC2c1ccncc1` (stereo not drawn) the melting point was 186 to 189 °C.
For `Cc1nc2cccc(OCC(C)(C)NC(=O)C3CCOCC3)c2c(N)c1C(=O)O`, the melting point was 170 to 173 °C.
In the case of `COC(=O)C1=C(C)NC(CC(=O)N2CCN(C3CC4CC(=O)CC4C3)CC2)=C(C(=O)OC)C1c1c(Cl)cccc1Cl` (stereo not drawn), the melting point is reported as 145 to 155 °C.
With `O=[N+]([O-])c1ccc(Oc2c(Cl)cc(C(F)(F)F)cc2Cl)cc1S(=O)(=O)c1cc[nH]n1` the melting point was 159 °C.
Molecule `CCN1c2ncc(C#Cc3cccnc3)cc2C(=O)N(C)c2cccnc21` has a melting point of 178 to 180 °C.
`C=CCC1(Cc2ncn(C(c3ccccc3)(c3ccccc3)c3ccccc3)c2C)CCc2c(C)c3ccccc3n2C1=O` (stereo not drawn) gave a melting point of 83 to 85 °C.
With `CCOC(=O)c1c(CN2CCOCC2)nc2cc(OC)c(OC)cc2c1-c1ccc(OC)c(OC)c1` the melting point was 146 to 147 °C.
Work on `CCCc1nn(-c2ccc(C(F)(F)F)cn2)cc1CCCOc1cc(CC(=O)O)cc(OC)c1` yielded a melting point of 139 to 140 °C.
Work on `COc1cc(OC)cc(-c2cc(=O)c3ccc(OCC(O)CN4CCN(c5ccccc5)CC4)cc3o2)c1` (stereo not drawn) yielded a melting point of 195 to 196 °C.
`FC(F)(F)c1ccc(-c2cc(C3CC3)cc(Cl)n2)cc1` showed a melting point of 89 to 93 °C.
`COc1ccc(NC(=O)c2ccc(C(C)(C)C#N)cc2)cc1` showed a melting point of 164 to 168 °C.
With `CCOc1cc2ncc3c(N)nc(-c4ccc(Br)cc4)cc3c2cc1OCC` the melting point was 230 to 235 °C.
`CCOC(=O)c1cc2ccccc2[nH]c1=O` gave a melting point of 160 to 163 °C.
Work on `Cc1cc(-n2cncn2)c2cccc(OCc3c(Cl)ccc(S(=O)(=O)N4CCC[C@H]4C(=O)NCCCN4CCCC4)c3Cl)c2n1` yielded a melting point of 86 °C.
`COC(=O)N1Cc2c(-c3ccc(F)cc3)ncn2-c2ccccc21` showed a melting point of 156 to 160 °C.
Work on `ClCc1c(Cl)c(Cl)c(Cl)c(CCl)c1Cl` yielded a melting point of 135 to 138 °C.
Work on `COc1c(-c2ccc(S(C)(=O)=O)cc2)cnn(-c2ccc(F)c(F)c2)c1=O` yielded a melting point of 113 to 115 °C.
In the case of `COC(=O)c1cc(OC)c(C(=O)O)cc1OC`, the melting point is reported as 123 to 124 °C.
For `CCCCCCNc1nc(SC)[nH]c2nccc1-2`, the melting point was 118 °C.
For `Cc1cc(SC2=C(O)CC(CCc3ccc(O)cc3)(C3CCCC3)OC2=O)c(C(C)(C)C)cc1OCCO` (stereo not drawn), the melting point was 113 to 115 °C.
Molecule `COc1cc[nH]c1C=C1C(=O)Nc2cccc(C#CC(O)c3ccc(OCC(=O)OC(C)(C)C)cc3)c21` (racemic) has a melting point of 173 to 175 °C.
For `Cc1cccc(NC(=O)NC2N=C(CN3CC4CCC(CC4)C3)c3cccc(C)c3N(C)C2=O)c1` (stereo not drawn), the melting point was 146 to 149 °C.
For `O=C(Oc1cc(Cl)ccc1Cl)c1cc2ccccc2oc1=O`, the melting point was 189 to 192 °C.
With `COCCN(C)c1nnc(-c2ccc(-c3ccccc3)nc2)n1-c1cccc2nonc12` the melting point was 133 to 134 °C.
Work on `COC(=O)C(C)Oc1ccc(NC(=O)CO)cc1` (stereo not drawn) yielded a melting point of 111 to 113 °C.
`O=[N+]([O-])c1ccc(C=Cc2nccn2Cc2ccccn2)o1` showed a melting point of 141 to 142 °C.
With `COC(=O)c1cccc(C)c1OC(=S)N(C)C` the melting point was 94 to 96 °C.
For `O=C(Oc1ccc(-c2ccc(O)c([N+](=O)[O-])c2)cc1)c1ccccc1`, the melting point was 163 °C.
In the case of `CCC1c2cc(OC)c(OC)cc2C(C=Cc2ccc(N)cc2)=NNC1C` (stereo not drawn), the melting point is reported as 155 to 158 °C.
`CC(=O)Nc1nc(N)nc(-c2ccc(S(=O)(=O)c3ccccc3)cc2)n1` gave a melting point of over 260 °C.
`C=CCOc1cc(Br)ccc1C(C)=NO` gave a melting point of 115 °C.
For `COc1cc(OC)nc(NC(=O)NS(=O)(=O)Nc2c(C)csc2C)n1`, the melting point was 190 °C.
`Cn1cc(C2=C(c3cn(C)c4ccc([N+](=O)[O-])cc34)C(=O)NC2=O)c2ccccc21` showed a melting point of 282 to 284 °C.
`CC(C)=CCCC(C)=CCNC(=O)Nc1ccccc1CCc1cc(C(C)(C)C)c(O)c(C(C)(C)C)c1` gave a melting point of 87 to 87.5 °C.
Work on `Cc1[nH]c(=S)[nH]c1C(N)=O` yielded a melting point of under 300 °C.
`COc1ccc(CNn2c(=O)ccc3cnc(SC)nc32)cc1Cl` showed a melting point of 189 to 190 °C.
For `Cc1sc2cc(CO)ccc2c1C(=O)O`, the melting point was 195 to 196 °C.
Work on `C[C@H]1CCCN(C(=O)Cc2ccc(Cl)c(Cl)c2)[C@H]1CO` (relative stereo) yielded a melting point of 161 to 162 °C.
`O=C1C(=O)c2ccc(Br)cc2C2=C1SCC1(CCN(Cc3ccc(F)cc3)CC1)O2` gave a melting point of 210 to 211 °C.
